In data set [1] the test system is Bone marrow cells from WT, TLR7KO, and TLR9KO mice. The data set can be described thus: TLR9 dependency: IL-6 production in bone marrow cells, ELISA. The format is cell-based, mouse. The conditions noted are these: R848 1 ug/mL, D35 10 uM=63.4 ug/mL, nanoparticles 1 μg/mL in terms of D35, 24 hours; for IL-6 production in TLR7KO: TLR7KO bone marrow cells; for IL-6 production in TLR9KO: TLR9KO bone marrow cells. The source says: (§1) The content of each lipid per 100 mass % of lipids constituting the lipid particles is as follows: DOTAP: 50 mass %, DPPC: 19.5 mass %, cholesterol: 30 mass %, and DSPE-PEG (2 k (PEG chain length))-OMe: 0.5 mass % or 3.0 mass %. The ratio (N/P) of the number of nitrogen atoms (N) in the lipids constituting the lipid particles to the number of phosphorus atoms (D35) (P) in the nucleic acid was set to 3. A D35-containing aqueous solution and a lipid-containing ethanol solution were mixed using the NanoAssemblr (produced by Precision NanoSystems) to obtain lipid nanoparticles, which were then dialyzed against a 5% glucose aqueous solution. In this Test Example and the following Test Examples, the D35-containing lipid nanoparticles obtained here were used.
(§2) Bone marrow cells were prepared from each of WT, TLR7KO, and TLR9KO mice, and stimulated with R848 (TLR7/8 agonist; medium final concentration: 1 ug/mL), D35 (TLR9 agonist; medium final concentration: 10 uM=63.4 ug/mL), and D35-containing lipid nanoparticles (medium final concentration in terms of D35: 1 μg/mL), followed by culturing for 24 hours. Then, the amounts of IFN-I and IL-6 in the culture supernatant were quantified by a biological activity measurement method using murine type I IFNs sensor cells (B16-Blue IFN-α/a cells) and by the usual ELISA method, respectively.

For data set [2] the test system is unchanged. The data set can be described thus: TLR9 dependency: IFN-I production in bone marrow cells, B16-Blue sensor cell bioassay. Conditions: R848 1 ug/mL; 24 hours. In kind it is cell-based, mouse.
Source text: as §1, §2

In data set [3] the test system is MC38 mouse colorectal cancer-derived tumor. The data set can be described thus: MC38 mouse colorectal cancer-derived tumor model, tumor size. In kind it is in vivo. Conditions: Test Example 6, FIG. 6: intratumoral, days 9, 11, 13, 15, 17; 4.5 ug/shot D35; effect on days 17 and 21. As to the method:
On days 9, 11, 13, 15, and 17 after subcutaneous transplantation of MC38 (1×10^6 cells), a pharmaceutical agent (D35 or D35-containing lipid nanoparticles (DSPE-PEG-OMe content: 0.5 mass %)) was intratumorally administered 5 times in total. Then, the tumor size was measured. The amount of D35 nucleic acid administered at one time was adjusted to 4.5 ug/shot.
On days 9, 11, 13, 15, and 17 after subcutaneous transplantation of MC38 (1×10^6 cells), D35-containing lipid nanoparticles (DSPE-PEG-OMe content: 0.5 mass %) were intratumorally administered 5 times in total. Then, the tumor size was measured. Further, in order to deplete CD8T cells, anti-CD8a antibody (100 ug/shot) or control antibody (100 ug/shot) was intraperitoneally administered on days 6 and 13 after subcutaneous transplantation. The amount of D35 nucleic acid administered at one time was adjusted to 4.5 ug/shot.
On days 9, 11, 13, 15, and 17 after subcutaneous transplantation of MC38 (1×10^6 cells), a pharmaceutical agent (D35 or D35-containing lipid nanoparticles (DSPE-PEG-OMe content: 0.5 mass %)) was administered intravenously 5 times in total. Then, the tumor size was measured. […]
On days 9, 11, 13, 15, and 17 after subcutaneous transplantation of MC38 (1×10^6 cells), D35-containing lipid nanoparticles (DSPE-PEG-OMe content: 0.5 mass %) were administered intravenously 5 times in total. Then, the tumor size was measured. […]

As to `CCOCc1nc2c(N)nc3ccccc3c2n1CC(C)(C)O` [R848], in data set [1], the “IL-6 production in TLR7KO” value is recorded as “disappeared” and the “IL-6 production in TLR9KO” value is “did not disappear”. In data set [2], the IFN-I production result is “very weak”.
Turning to “G_G_TGCATCGATGCAGGGG_G_G (DNA GGTGCATCGATGCAGGGGGG; DNA, linkages s2 o15 s2 (s phosphorothioate, o phosphodiester), methylation of C not given here; formulated in lipid nanoparticles) [D35, A-type CpG oligodeoxynucleotide, TLR9 agonist, not complexed with lipids]”, in data set [1], the “IL-6 production in TLR7KO” value is “did not disappear” and the “IL-6 production in TLR9KO” value is reported as “disappeared almost completely”. The tumor size entry in data set [3] was “No effect was observed”.

These data come from patent US20210261964A1, “LIPID PARTICLE CONTAINING A-TYPE CpG OLIGODEOXYNUCLEOTIDE” (THE RESEARCH FOUNDATION FOR MICROBIAL DISEASES OF OSAKA …, priority 2018, published 2021).
